Laboratory results: patent publication US20230110354A1, “THERAPEUTIC AGENT DELIVERY SYSTEMS AND METHODS OF FORMING AND USES THEREOF” (The Regents of the University of Colorado, a Body Corporate, priority 2020, published 2023)
Where a name gives a salt, the structure may show the parent alone.

Tests used:
[1] = package insert; cited from earlier work
[2] = Lidocaine release study, lidocaine-loaded nanoparticles in crosslinked gelatin hydrogel (UV-Vis 280 nm); type: physicochemical
Procedure: For the lidocaine release study, a coated tubing which comprises a dried 1 cm by 0.5 cm piece of gelatin-lidocaine (100 mg lidocaine in 0.5 ml gelatin, 1% GA) was used. The coated tubing was placed in a 7 ml glass scintillation vial for the release study. The release solution medium (1 ml of PBS) was added to the scintillation vials, and the sample was incubated at 37° C. 1 ml samples were taken daily, and the release solution was replenished. The day 0 sample was taken 5 minutes after adding the release solution to the vials to measure the amount of lidocaine not incorporated into the gels.
The amount of lidocaine released as an effect of different nanoparticle formulations and differing amounts of lidocaine was determined using a UV-Vis spectrophotometer (GENESYS 10S UV-Vis) at 280 nm wavelength and samples were performed in triplicate (n=3). As a control, the same gelatin samples were prepared without the addition of lidocaine to measure any change in absorbance readings from the gel itself.

[3] = Lidocaine release study, gelatin-lidocaine hydrogel (UV-Vis 280 nm); type: physicochemical
Procedure: The coated tubing was placed in a 7 ml glass scintillation vial for the release study.
The release solution medium (1 ml of PBS) was added to the scintillation vials, and the sample was incubated at 37° C. 1 ml samples were taken daily, and the release solution was replenished. The day 0 sample was taken 5 minutes after adding the release solution to the vials to measure the amount of lidocaine not incorporated into the gels. […] As a control, the same gelatin samples were prepared without the addition of lidocaine to measure any change in absorbance readings from the gel itself.

[4] = In vitro protein release test from SRTG micelle system (ELISA); type: physicochemical; settings: for loading efficiency of protein in the hydrogel / loaded protein released by day 1 (burst release): SRTG 5 wt% + micelle NPs; for loading efficiency of protein in the hydrogel: 500 ng of each protein, day 0 sample after 5 min; for loaded protein released by day 1 (burst release): PBS with 0.2% BSA, 37° C.; for sustained release rate: after day 0 / day 1 through 28 days
Procedure: Proton nuclear magnetic resonance (1H NMR) was completed with a Varian Inova 500 NMR spectrometer. 1H NMR was used to confirm the structure of PEG-PSHU-PEG. The PEG-PSHU-PEG samples to be analyzed were dissolved in 600 μL of DMSO-d6. Protein Release Test. […] Solutions were mixed and left to dissolve overnight at 4° C. […] Then, 1 mL of warm (37° C.) release solution (lx PBS with 0.2% BSA) was added to the vials. After 5 min, 1 mL of release solution was removed from each sample for the day 0 time point, and 1 mL of fresh warm release solution was added. Samples were then taken every 24 h and immediately placed in a −80° C. freezer for further analysis. Enzyme-linked immunosorbent assay (ELISA) was used to quantify the concentration of proteins in the release solution samples following the manufacturer's instructions (Peprotech, Rocky Hill, N.J.). ELISA color development was monitored with a BioTek Synergy 2 Multi-Mode Reader at 405 nm with wavelength correction set at 650 nm. The results of three replicates were averaged. The hydrogels were initially allowed to stabilize for 5 min at which a sample was taken to determine the loading efficiency of the proteins in the hydrogels (day 0).

NIH3T3 cells = settings: 10 pg/mL, low serum or serum-free medium; cited from earlier work
[5] = cited from earlier work

Which “maximum dose at one time” value [1] does the source give for CCN(CC)CC(=O)Nc1c(C)cccc1C [lidocaine hydrochloride] here?
The value was ≤ 300 mg.

What about the maximum subcutaneous dose [1] of the same molecule?
The maximum subcutaneous dose was “about 4.5 mg/kg”.

With CCN(CC)CC(=O)Nc1c(C)cccc1C [lidocaine] as the molecule, how does the “duration of sustained release of lidocaine” value (“duration … of lidocaine” for short) ([2]; 20 mg and 10 mg NP groups loaded with 100 mg of lidocaine, in gelatin hydrogel, PBS, 37° C.) read?
Its value is 10 days.

What about the “duration … of lidocaine” value ([2]; 50 mg lidocaine groups, NP formulations in gelatin hydrogel) of the same molecule?
The value was 11 days.

What about the “period of continued stable lidocaine elution, post-sterilization” value ([2]; Example 6, chest tube coated with micelle-loaded crosslinked gelatin) of the same molecule?
The value was 3 to 7 days.

And the “period of continued stable lidocaine elution, post-sterilization” value ([3]; Example 7, chest tube coated with lidocaine loaded crosslinked gelatin)?
Its value is 3 to 7 days.

What about the “duration … of lidocaine” value ([3]; various gelatin and glutaraldehyde concentrations, coated tubing method) of the same molecule?
Its value is 10 days.

What does the source list for PDGF?
loading efficiency of protein in the hydrogel [4]: 99%; loaded protein released by day 1 (burst release) [4]: approximately 3%; sustained release rate ([4]; SRTG micelle system): 0.39 ng per day; duration of sustained release from the delivery system ([4]; in vitro, SRTG micelle system): 28 days

For “TGF-β1: transforming growth factor-β1, literature example”, which “effect on growth rate of NIH3T3 cells” value (NIH3T3 cells) is on record?
The value was “stimulated the growth rate of NIH3T3 cells”.

B1: IL-10: Recombinant Murine IL-10, anti-inflammatory cytokine; cited Kd is for human IL-10 (protein, UniProt P18893 19-178, looked up)
Interleukin-10: SRGQYSREDNNCTHFPVGQSHMLLELRTAFSQVKTFFQTKDQLDNILLTDSLMQDFKGYLGCQALSEMIQFYLVEVMPQAEKHGPEIKEHLNSLGEKLKTLRMRLRRCHRFLPCENKSKAVEQVKSDFNKLQDQGVYKAMNEFDIFINCIEAYMMIKMKS
What does the source list for B1?
loading efficiency of protein in the hydrogel [4]: 93%; loaded protein released by day 1 (burst release) [4]: approximately 21%; sustained release rate ([4]; SRTG micelle system): 0.24 ng per day; half-life in vivo [5]: less than 5 h
